Source: ChEMBL document CHEMBL1158874, “Elgonica-Dimers A and B, Two Potent Alcohol Metabolism Inhibitory Constituents of Aloe arborescens” (J Nat Prod, 1997)

Experiments:
[1] = Inhibition of Sprague-Dawley rat cytosolic alcohol dehydrogenase
[2] = target: T1, Aldehyde dehydrogenase, cytosolic 1 (Rattus norvegicus, UniProt P13601); assay: Inhibition of Sprague-Dawley rat cytosolic aldehyde dehydrogenase
T1 sequence (P13601 whole entry): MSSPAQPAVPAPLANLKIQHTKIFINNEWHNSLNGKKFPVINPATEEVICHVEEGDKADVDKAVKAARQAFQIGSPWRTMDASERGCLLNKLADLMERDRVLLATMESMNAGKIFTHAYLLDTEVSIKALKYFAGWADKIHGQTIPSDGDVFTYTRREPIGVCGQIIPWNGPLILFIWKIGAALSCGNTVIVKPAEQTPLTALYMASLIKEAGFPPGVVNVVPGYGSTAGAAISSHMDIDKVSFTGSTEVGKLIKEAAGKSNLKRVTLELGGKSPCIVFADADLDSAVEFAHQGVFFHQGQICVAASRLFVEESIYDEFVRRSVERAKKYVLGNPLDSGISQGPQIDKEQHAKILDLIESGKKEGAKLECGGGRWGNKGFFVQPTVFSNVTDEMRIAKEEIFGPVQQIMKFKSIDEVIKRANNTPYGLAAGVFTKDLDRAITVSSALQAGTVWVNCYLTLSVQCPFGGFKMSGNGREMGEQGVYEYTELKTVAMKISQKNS

[3] = target: T2, Aldehyde dehydrogenase, mitochondrial (Rattus norvegicus, UniProt P11884); assay: Inhibition of Sprague-Dawley rat mitochondrial aldehyde dehydrogenase
T2 sequence (P11884 whole entry): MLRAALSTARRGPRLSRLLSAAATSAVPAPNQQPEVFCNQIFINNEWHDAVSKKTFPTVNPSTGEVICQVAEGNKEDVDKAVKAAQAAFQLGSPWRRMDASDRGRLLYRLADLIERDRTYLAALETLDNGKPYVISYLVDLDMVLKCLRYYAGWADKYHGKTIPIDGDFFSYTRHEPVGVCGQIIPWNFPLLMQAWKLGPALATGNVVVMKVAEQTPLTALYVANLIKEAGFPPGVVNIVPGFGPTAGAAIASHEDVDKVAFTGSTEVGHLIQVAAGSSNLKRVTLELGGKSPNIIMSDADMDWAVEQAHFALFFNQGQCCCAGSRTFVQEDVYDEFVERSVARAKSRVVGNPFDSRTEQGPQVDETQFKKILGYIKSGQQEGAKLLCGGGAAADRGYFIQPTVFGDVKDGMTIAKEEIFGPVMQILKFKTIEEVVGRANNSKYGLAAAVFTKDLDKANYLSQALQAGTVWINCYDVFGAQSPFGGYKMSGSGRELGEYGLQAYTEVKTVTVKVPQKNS

| SMILES | IC50 [1] [µM] | IC50 [2] [µM] | IC50 [3] [µM] |
| --- | --- | --- | --- |
| c1cn[nH]c1 [PYRAZOLE] | 9.8 |  |  |
| O=C1c2cc(CO)cc(O)c2C(=O)c2c1ccc(C1(C3O[C@H](CO)[C@@H](O)[C@H](O)[C@H]3O)c3cccc(O)c3C(=O)c3c(O)cc(CO)cc31)c2O (stereo partly drawn) [listing 1 of 2 here] | 0.055 | 0.16 | 0.36 |
| C#CCN(C)Cc1ccccc1 [PARGYLINE] |  | 300 | 5.6 |
| COc1cc(-c2c(C)cc(O)cc2O[C@@H]2O[C@@H](CO)[C@@H](O)[C@H](O)[C@H]2O)oc(=O)c1 [ALOENIN] | 33.1 | 27 |  |
| O=C1c2cc(CO)cc(O)c2C(=O)c2c1ccc(C1(C3O[C@H](CO)[C@@H](O)[C@H](O)[C@H]3O)c3cccc(O)c3C(=O)c3c(O)cc(CO)cc31)c2O (stereo partly drawn) [listing 2 of 2 here] | 0.011 | 0.53 | 0.72 |
| O=C1c2cccc(O)c2C(=O)c2c(O)cc(CO)cc21 [ALOE-EMODIN] | 24.4 | 6 |  |
